Data as given in patent US20160045487A1, “COMPOSITIONS AND METHODS FOR TREATING NEUROPATHY” (CHILDEREN'S MEDICAL CENTER CORPORATION, priority 2013, published 2016).

Columns and labels:
[1] = tested on: wild type mice; test: Electron microscopy of sciatic nerve Remak bundles, wild type mice; assay type: in vivo, mouse; settings: WT mice; XIB4035 cream 4 weeks
Procedure: As a first test, a cream containing XIB4035 (1.5 mM) was applied directly to the hind paws of GFAP-DN-erbB4 and wild type mice twice daily for a period of 4 weeks starting prior to symptom onset (P21). Mice of both genotypes were also treated with the base cream containing no drug for control. Mice were tested for responses to a noxious thermal stimulus prior to the initiation of treatment and every 7 days for the duration of the experiment.
The cream containing XIB4035 (1.5 mM, ZereneX Molecular Ltd., Manchester, UK) consisted of N-methyl-pyrrolidone (6.25%), isopropyl myristate (6.25%) and petroleum jelly (87.5%). Control cream had the same ingredients without XIB4035. Cream was applied twice daily to the hind paws of mice starting at P21 for a period of 4 weeks for prophylactic treatment of GFAP-DN-erbB4. Diabetic mice were treated twice daily for 8 weeks after streptozotocin (STZ) injection prior to onset of hyperglycemia and for another 8 weeks during neuropathy testing. Cream treatment in therapeutic studies using GFAP-DN-erbB4 mice was performed twice daily beginning after onset of SFN at P28 and either continued for 5 weeks (chronic treatment) or 1 week (acute treatment).
Tissue was prepared as in (Lacomis, supra). Briefly, mice were perfused intracardially with 2% paraformaldehyde, 2.5% gluteraldehyde and 0.03% picric acid in 0.1 M cacodylate buffer (pH 7.2). […]

[2] = tested on: GFAP-DN-erbB4 mice; test: IB4 staining of C-fiber terminals in lamina II of spinal cord dorsal horn; assay type: in vivo, mouse; settings: cream P28-P35; n=6
Procedure: However, in the clinic, therapy would almost certainly begin after patients present with symptoms of SFN. Therefore, it was determined whether topical XIB4035 can act as a disease-modifying agent in the GFAP-DN-erbB4 neuropathy model starting after animals are clearly symptomatic (P28). […] While IB4 labeling in mutant mice was lower than wild types regardless of treatment, IB4 signal was clearly present in mutant mice treated with XIB4035 while absent in those treated with control cream (FIG. 3D; 83% of XIB4035 treated mice (n=6) with IB4+ lamina II terminals vs 0% (n=4) in control treated mice) (FIG. 3D).
Spinal cords were collected from mice anesthetized with 2.5% Avertin, immersion fixed in 4% paraformaldehyde in 0.1 M phosphate buffer (pH 7.4) for 2 hours at 4° C., and cryoprotected in 20% sucrose overnight at 4° C. Tissue was embedded in OCT, sectioned at 15 μm, and stained mounted on slides. Tissue was blocked for 30 minutes in 0.1M PB+0.3% Triton-X 100+10% normal goat serum and incubated with TrpV1 rabbit polyclonal antibody (AbCAM, 1:2000) and Alexa-488 conjugated isolectin-B4 overnight at 4° C. Sections were washed 3 times for 30 minutes in 0.1M PB+0.3% Triton-X 100+10% normal goat serum followed by incubation with goat anti-rabbit Alexa-594 (Invitrogen) 1:1000 for 1 hour at room temperature.
Spinal cord images were acquired using a Zeiss Axioscope microscope. […]

[3] = target: T1, TrkA (Rattus norvegicus, UniProt P35739); test: NGF-induced TrkA phosphorylation in PC12 cells; assay type: cell-based; settings: 50 ng/ml NGF with 20 μM XIB4035, 10 minutes; 15, 30 or 45 minutes after
T1 construct: endogenous in cells; host or cells: PC12 (PC-12) cells
Procedure: PC12 cells were treated with 50 ng/ml of NGF with or without 20 μM XIB4035 for 10 minutes. Cell lysates were either collected immediately or after cells were incubated in growth media for additional 15, 30, or 45 minutes. Cell lysates were subjected to immunoprecipitation using anti-TrkA antibodies and analysis via phospho-tyrosine Western blot. TrkA phosphorylation is not prolonged by addition of XIB4035.
(§1) For phosphorylated Ret immunoblot experiments, cells were treated with various combinations of molecules for 10 minutes and either collected immediately or had treatment washed out and returned to control treatment media for the times indicated prior to cell collection. Lysates were collected in buffer containing: 50 mM Tris-HCL, 1% TX-100, 0.25% Deoxycholic acid, 150 mM sodium chloride, 1 mM EDTA, 0.1 mM sodium fluoride, 0.1 mM sodium pyrophosphate, 0.02 mM sodium orthovanadate, and protease inhibitors Immunoblots were blocked in 5% bovine serum albumin in tris-buffered saline+0.2% Tween 20+0.1 mM sodium fluoride, 0.1 mM sodium pyrophosphate, and 0.02 mM sodium orthovanadate and probed in blocking solution using anti-phospotyrosine (4G10) mouse monoclonal antibody (1:2000; EMD Milipore Corp., Billerica, Mass.). Secondary detection was performed in blocking solution using HRP-conjugated goat-anti-mouse antibodies (1:1000; MP Biolomedicals LLC, Solon, Ohio). […]

[4] = target: T2, GFRα1/RET (UniProt P35546+Q62997); test: RET phosphorylation in N2A cells transfected with GFRα1; assay type: cell-based, rat GFRα1 in murine N2A cells
T2 construct: N2A cells (which express RET) transfected with GFRα1 or GFRα3 expression constructs; expressed in transfected cells; host or cells: Neuro2A (N2A) cells; GFRα1 plasmid was a gift from Dr. Milbrandt; RET is endogenous
Procedure: Since the original report argued that XIB4035 displaces GDNF binding to GFRα1 expressing cells (FIG. 2 in Tokugawa et al., Neurochem Int 42, 81-86 (2003).), potentially ARTN, on TH-luciferase activity and Ret phosphorylation. […] In this experiment, cells were treated with GDNF or ARTN with or without XIB4035 for 10 minutes and cell lysates were either collected immediately or treatment was washed out and replaced with growth media for 30, 60, or 120 minutes. […] Therefore, we tested cells expressing only one GFRα using either N2A cells (which express RET) transfected with GFRα1 or GFRα3 expression constructs, or B(E)2-C cells, which express only GFRα2 together with RET. […] The GFRα1 or GFRα3 transfected N2A cells were then treated with XIB4035 alone, the appropriate ligand for the expressed receptor alone, or XIB4035 and ligand in combination for 10 minutes, and collected lysates immediately after treatment or 60 minutes after washout. […] Similar results were obtained with GFRα2 and NRTN using B(E)2-C cells (FIG. 8). Thus, XIB4035 is a positive modulator of signaling by GDNF family ligands and their receptors, not an agonist for GFRα1 as previously reported.
as §1, with “Mass.).” for “Mass.). Secondary detection was performed in blocking solution using HRP-conjugated goat-anti-mouse antibodies (1:1000; MP Biolomedicals LLC, Solon, Ohio).”

T2 sequence (Q62997 25-430 limits assumed): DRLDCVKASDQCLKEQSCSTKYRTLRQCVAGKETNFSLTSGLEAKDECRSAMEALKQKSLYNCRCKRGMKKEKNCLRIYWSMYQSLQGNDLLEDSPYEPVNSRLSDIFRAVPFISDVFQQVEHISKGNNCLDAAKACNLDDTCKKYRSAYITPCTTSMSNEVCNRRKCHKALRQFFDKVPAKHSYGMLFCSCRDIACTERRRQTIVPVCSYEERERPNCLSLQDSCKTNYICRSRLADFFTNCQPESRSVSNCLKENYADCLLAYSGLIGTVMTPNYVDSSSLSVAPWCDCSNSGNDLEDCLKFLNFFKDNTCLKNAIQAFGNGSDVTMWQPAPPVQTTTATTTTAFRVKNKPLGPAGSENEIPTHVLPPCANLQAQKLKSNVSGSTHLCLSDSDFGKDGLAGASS
T2 sequence (P35546 29-1115): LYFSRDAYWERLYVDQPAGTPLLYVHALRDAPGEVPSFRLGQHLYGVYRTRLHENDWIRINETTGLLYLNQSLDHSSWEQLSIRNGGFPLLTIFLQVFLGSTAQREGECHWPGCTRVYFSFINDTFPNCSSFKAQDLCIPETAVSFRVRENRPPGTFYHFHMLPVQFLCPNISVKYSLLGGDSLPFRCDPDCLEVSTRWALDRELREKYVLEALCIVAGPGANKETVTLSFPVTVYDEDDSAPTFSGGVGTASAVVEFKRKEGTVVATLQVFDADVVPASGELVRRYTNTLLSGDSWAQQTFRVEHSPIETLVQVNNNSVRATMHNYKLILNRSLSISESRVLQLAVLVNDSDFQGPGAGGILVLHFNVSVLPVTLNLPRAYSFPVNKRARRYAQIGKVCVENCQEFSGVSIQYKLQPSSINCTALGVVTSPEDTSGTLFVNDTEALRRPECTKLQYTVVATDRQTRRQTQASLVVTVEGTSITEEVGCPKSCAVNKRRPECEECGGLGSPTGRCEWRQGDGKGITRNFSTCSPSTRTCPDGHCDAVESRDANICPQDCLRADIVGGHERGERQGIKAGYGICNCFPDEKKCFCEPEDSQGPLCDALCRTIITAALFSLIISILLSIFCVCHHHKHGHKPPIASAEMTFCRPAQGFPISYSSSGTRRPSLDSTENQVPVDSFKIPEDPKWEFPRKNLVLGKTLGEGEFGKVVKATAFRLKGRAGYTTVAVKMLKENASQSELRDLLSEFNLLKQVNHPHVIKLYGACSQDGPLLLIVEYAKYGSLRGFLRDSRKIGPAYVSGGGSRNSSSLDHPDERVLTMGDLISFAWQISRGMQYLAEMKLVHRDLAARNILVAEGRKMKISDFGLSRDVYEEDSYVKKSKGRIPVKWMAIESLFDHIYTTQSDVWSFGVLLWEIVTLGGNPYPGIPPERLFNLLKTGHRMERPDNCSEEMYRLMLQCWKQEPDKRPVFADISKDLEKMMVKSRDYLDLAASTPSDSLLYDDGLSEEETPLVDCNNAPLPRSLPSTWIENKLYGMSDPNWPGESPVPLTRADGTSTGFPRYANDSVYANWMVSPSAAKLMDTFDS
T1 sequence (P35739 33-799): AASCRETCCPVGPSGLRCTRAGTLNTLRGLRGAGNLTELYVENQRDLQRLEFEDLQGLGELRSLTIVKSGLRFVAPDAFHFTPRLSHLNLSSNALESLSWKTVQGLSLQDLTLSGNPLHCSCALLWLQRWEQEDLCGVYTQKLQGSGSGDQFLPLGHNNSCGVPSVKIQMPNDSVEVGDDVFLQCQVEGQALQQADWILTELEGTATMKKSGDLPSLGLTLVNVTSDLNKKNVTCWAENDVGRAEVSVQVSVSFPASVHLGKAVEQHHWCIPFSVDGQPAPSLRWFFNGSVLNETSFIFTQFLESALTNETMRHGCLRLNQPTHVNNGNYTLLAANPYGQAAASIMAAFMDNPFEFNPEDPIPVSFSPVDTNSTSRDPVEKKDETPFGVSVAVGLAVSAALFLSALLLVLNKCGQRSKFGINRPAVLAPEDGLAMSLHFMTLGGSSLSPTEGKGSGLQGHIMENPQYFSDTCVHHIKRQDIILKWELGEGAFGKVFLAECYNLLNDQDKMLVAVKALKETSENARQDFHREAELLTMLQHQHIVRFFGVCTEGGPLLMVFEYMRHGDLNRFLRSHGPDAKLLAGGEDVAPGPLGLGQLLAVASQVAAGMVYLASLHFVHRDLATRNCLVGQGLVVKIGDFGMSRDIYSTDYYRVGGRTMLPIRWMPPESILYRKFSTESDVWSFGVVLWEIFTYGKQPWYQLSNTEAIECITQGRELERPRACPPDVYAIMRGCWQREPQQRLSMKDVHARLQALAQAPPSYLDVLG

CCN(CC)CCCC(C)Nc1cc(/C=C/c2ccccc2Cl)nc2cc(Cl)ccc12 (stereo not drawn) [XIB4035, N4-{7-chloro-2-[(E)-2-(2-chloro-phenyl)-vinyl]-quinolin-4-yl}-N1,N1-diethyl-pentane-1,4-diamine]
c-fiber area [1]: 1.81 ± 0.06 µm²
c-fibers/Remak bundle [1]: 8.80 ± 0.52
treated mice with IB4+ lamina II terminals [2]: 83%
NGF-induced TrkA phosphorylation [3]: not prolonged
induction of RET phosphorylation ([4]; XIB4035 alone, 10 minutes): did not induce RET phosphorylation
RET phosphorylation at the 60 min time-point compared to ligand alone ([4]; XIB4035 and ligand co-treatment, 60 minutes after washout): clearly prolonged
